Source: patent US11033550B2, “Medicament” (TAKEDA PHARMACEUTICAL COMPANY LIMITED, priority 2016, dated 2021)

Assays:
[1] = test system: monocrotaline (MCT)-induced pulmonary hypertensive rats; settings: Non Patent Literatures 1 to 5; cited from earlier work
[2] = test system: hypoxia-induced pulmonary hypertensive (HPH) mice; settings: Non Patent Literatures 1 to 5; cited from earlier work
[3] = Non Patent Literature 7; cited from earlier work
[4] = test system: monocrotaline-induced pulmonary hypertensive rat model; experiment: Right ventricular pressure (RVP) by catheterization in monocrotaline-induced pulmonary hypertensive rat model; format: in vivo; settings: for RVP: measured 28 days after MCT, mean
Method: (§1) Monocrotaline (MCT) was subcutaneously injected at 50 mg/kg (in 50% dimethyl sulfoxide solution) to male Sprague-Dawley rats having a body weight of 250 g ± 10% to prepare pulmonary hypertensive rat models. Compound A′ and the same amount of a vehicle were orally administered to a compound A′ administration group (dose: 1 mg/kg, 3 mg/kg, or 10 mg/kg) and a control group, respectively, every day over 14 days from the 14th day after the MCT administration. This experiment was carried out using these groups each involving 9 rats (12 rats were used only in a vehicle control group). • (2) Effect on Right Ventricular Pressure (RVP)
The right ventricular pressure (RVP) was measured by catheterization for the rats that survived at 28 days after MCT administration (negative control group (monocrotaline non-administered group), 9 rats; vehicle control group, 8 rats; compound A′ 1 mg/kg administration group, 9 rats; compound A′ 3 mg/kg administration group, 5 rats; compound A′ 10 mg/kg administration group, 9 rats; total 40 rats).

[5] = test system: monocrotaline-induced pulmonary hypertensive rat model; experiment: Right ventricular systolic pressure (RVSP) by catheterization in monocrotaline-induced pulmonary hypertensive rat model; format: in vivo; settings: for RVSP: measured 28 days after MCT, mean
Method: as §1
The right ventricular systolic pressure (RVSP) was measured by catheterization for the rats that survived at 28 days after MCT administration ((negative control group (monocrotaline non-administered group), 9 rats; vehicle control group, 8 rats; compound A′ 1 mg/kg administration group, 9 rats; compound A′ 3 mg/kg administration group, 5 rats; compound A′ 10 mg/kg administration group, 9 rats; total 40 rats)).

[6] = test system: monocrotaline-induced pulmonary hypertensive rat model; experiment: Right ventricular hypertrophy, RV/(LV+S), in monocrotaline-induced pulmonary hypertensive rat model; format: in vivo; settings: for RV/(LV + S): 28 days after MCT, index for right cardiomegaly, mean
Method: as §1
The right ventricle weight (RV), left ventricle weight (LV), and interventricular septum weight (S) were measured for pulmonary hypertensive rat models that survived at 28 days after MCT administration (negative control group (monocrotaline non-administered group), 9 rats; vehicle control group, 8 rats; compound A′ 1 mg/kg administration group, 9 rats; compound A′ 3 mg/kg administration group, 5 rats; compound A′ 10 mg/kg administration group, 9 rats; total 40 rats)), and RV/(LV+S) was determined as an index for right cardiomegaly.

[7] = test system: monocrotaline-induced pulmonary hypertensive rat model; experiment: Pulmonary artery medial wall thickening (Elastica van Gieson staining) in monocrotaline-induced pulmonary hypertensive rat model; format: in vivo; settings: for Thickness of pulmonary artery medial wall: 10 mg/kg orally, 28 days after MCT, mean
Method: as §1
(§2) Concerning the pulmonary hypertensive rat models that survived at 28 days after MCT administration (negative control group (monocrotaline non-administered group), 9 rats; vehicle control group, 8 rats; compound A′ 10 mg/kg administration group, 9 rats), tissue specimens of pulmonary tissue sections were prepared from 5 rats per group (total 15 rats) by Elastica van Gieson staining method to measure the thickening of the medial wall of the pulmonary artery.

[8] = test system: monocrotaline-induced pulmonary hypertensive rat model; experiment: Pulmonary artery occlusion index (Elastica van Gieson staining) in monocrotaline-induced pulmonary hypertensive rat model; format: in vivo; settings: for Pulmonary artery occlusion: 10 mg/kg orally, 28 days after MCT, twice medial wall thickness divided by artery diameter, mean
Method: as §1
as §2, with “occlusion” for “the thickening of the medial wall”, “artery. A value obtained by dividing a value that is twice as much as the thickness of the pulmonary artery medial wall by the diameter of the pulmonary artery was used as an index of occlusion.” for “artery.”

[9] = test system: monocrotaline-induced pulmonary hypertensive rat models; experiment: Survival rate (Kaplan-Meier) in monocrotaline-induced pulmonary hypertensive rat models; format: in vivo; settings: 1, 3 or 10 mg/kg orally once every day over 14 days from 14th day after MCT; result in words
Method: Monocrotaline (MCT) was subcutaneously injected at 50 mg/kg (in 50% dimethyl sulfoxide solution) to male Sprague-Dawley rats having a body weight of 230 g ± 10 g to prepare pulmonary hypertensive rat models. Compound A′ and the same amount of a vehicle were orally administered to a compound A′ administration group (dose: 1 mg/kg, 3 mg/kg, or 10 mg/kg) and a control group, respectively, once every day over 14 days from the 14th day after the MCT administration. This experiment was carried out using these groups each involving 12 rats. • (2) Effect on Survival Rate

[10] = biological target: T1, interaction between human NHE1 and human CHP1 (Homo sapiens, UniProt P19634+Q99653); experiment: CHP1-NHE1 interaction, AlphaScreen protein interaction measurement system; format: binding
T1 construct: made in house; host or cells: NHE1: FreeStyle 293 cells (microsomal fraction); CHP1: wheat germ cell-free translation system
T1 sequence (P19634 whole entry): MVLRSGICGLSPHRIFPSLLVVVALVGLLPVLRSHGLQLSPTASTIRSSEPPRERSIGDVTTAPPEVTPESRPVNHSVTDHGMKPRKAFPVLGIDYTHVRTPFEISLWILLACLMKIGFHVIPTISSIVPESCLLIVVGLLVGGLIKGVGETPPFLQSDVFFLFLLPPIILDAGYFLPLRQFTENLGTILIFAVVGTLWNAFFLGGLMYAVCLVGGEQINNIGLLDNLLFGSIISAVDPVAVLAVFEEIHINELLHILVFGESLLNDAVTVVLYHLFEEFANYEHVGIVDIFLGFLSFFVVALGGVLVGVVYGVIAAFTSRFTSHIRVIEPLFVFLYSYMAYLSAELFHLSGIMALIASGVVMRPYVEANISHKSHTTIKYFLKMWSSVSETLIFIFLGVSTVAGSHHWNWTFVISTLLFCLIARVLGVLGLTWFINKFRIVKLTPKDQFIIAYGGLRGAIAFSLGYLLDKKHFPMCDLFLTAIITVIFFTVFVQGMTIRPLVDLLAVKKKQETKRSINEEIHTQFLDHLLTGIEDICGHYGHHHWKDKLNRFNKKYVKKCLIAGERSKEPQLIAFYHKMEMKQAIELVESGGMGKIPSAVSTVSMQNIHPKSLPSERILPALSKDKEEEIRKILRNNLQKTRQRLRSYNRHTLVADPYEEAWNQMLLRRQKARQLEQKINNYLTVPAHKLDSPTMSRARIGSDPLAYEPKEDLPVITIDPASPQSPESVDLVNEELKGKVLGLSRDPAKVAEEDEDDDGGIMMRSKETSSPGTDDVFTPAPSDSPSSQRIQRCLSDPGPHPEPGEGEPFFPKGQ
T1 sequence (Q99653 whole entry): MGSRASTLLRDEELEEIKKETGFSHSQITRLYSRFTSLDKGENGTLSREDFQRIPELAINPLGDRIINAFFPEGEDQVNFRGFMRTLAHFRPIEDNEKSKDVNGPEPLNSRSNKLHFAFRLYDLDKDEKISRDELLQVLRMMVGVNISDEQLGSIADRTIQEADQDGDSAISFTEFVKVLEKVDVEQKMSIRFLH
Method: The inhibitory activity of compound A′ on the interaction between human NHE1 and human CHP1 was evaluated in a protein interaction measurement system using an amplified luminescence proximity homogeneous assay (AlphaScreen™ (PerkinElmer)). A microsomal fraction of FLAG-tagged full-length human NHE1 (Accession No. NM 003047) was prepared by being expressed in human embryonic kidney cell-derived FreeStyle™ 293 cells. Also, biotinylated full-length human CHP1 (Accession No. NM 007236) was expressed in a wheat germ cell-free translation system and purified. The NHE1 microsomal fraction and CHP 1 were diluted with an assay buffer (25 mM Tris-HCl (pH 7.4), 137 mM NaCl, 2.7 mM KCl, 0.1% BSA, 1 mM DTT), and compound A′ was added thereto. Then, the mixture was added to an Alpha Plate-384 Shallow Well (Perkin Elmer) in an amount of 2 μL/well, and reacted at room temperature for 60 minutes. Acceptor Beads and Donor Beads accompanying an AlphaScreen FLAG(M2) Detection Kit (PerkinElmer) were added thereto each in an amount of 2 μL/well, and the mixture was reacted at room temperature for 60 minutes. Thereafter, the AlphaScreen signal intensity was measured using an EnSpire Multi-label reader (PerkinElmer). Different concentrations of compound A′ (concentration: 50.0 nM to 0.8 nM) were evaluated in this test system. • (2) Results

[11] = biological target: T2, calcium-sensing receptor (CaSR) (Homo sapiens, UniProt P41180); settings: Non Patent Literature 6; cited from earlier work
T2 sequence (P41180 20-1078): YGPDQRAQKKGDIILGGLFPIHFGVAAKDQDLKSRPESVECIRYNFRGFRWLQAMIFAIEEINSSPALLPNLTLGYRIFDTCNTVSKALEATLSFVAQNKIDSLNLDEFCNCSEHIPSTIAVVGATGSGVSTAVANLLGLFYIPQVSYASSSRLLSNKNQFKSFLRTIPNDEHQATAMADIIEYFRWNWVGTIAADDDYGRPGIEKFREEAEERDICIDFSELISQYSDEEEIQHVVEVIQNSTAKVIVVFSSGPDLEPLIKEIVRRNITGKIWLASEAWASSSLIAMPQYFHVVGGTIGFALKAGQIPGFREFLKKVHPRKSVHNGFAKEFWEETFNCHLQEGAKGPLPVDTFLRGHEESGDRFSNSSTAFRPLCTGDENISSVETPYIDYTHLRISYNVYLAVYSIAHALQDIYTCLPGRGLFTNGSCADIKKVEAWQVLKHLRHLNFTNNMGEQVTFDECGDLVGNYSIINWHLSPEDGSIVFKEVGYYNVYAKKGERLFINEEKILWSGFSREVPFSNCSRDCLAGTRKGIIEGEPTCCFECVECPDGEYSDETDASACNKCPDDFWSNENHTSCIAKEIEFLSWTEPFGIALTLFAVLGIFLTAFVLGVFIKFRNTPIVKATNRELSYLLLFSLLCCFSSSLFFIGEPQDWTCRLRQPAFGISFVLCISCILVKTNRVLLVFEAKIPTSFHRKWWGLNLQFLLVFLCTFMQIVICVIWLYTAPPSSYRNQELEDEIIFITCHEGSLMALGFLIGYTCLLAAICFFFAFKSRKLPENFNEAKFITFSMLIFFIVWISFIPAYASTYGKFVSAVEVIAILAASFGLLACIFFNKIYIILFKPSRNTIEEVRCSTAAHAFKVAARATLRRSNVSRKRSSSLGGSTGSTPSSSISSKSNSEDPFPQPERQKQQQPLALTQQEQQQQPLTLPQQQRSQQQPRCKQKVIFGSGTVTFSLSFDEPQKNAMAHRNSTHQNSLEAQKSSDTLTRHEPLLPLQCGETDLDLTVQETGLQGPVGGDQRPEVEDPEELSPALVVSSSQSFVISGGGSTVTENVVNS

[12] = 1 mg/kg orally every day over 14 days from 14th day after MCT
[13] = 3 mg/kg orally every day over 14 days from 14th day after MCT
[14] = 10 mg/kg orally every day over 14 days from 14th day after MCT
[15] = Diameter of pulmonary artery (<50 μM)

Q: Which results are given for `CC(C)(Cc1ccc2ccccc2c1)NC[C@@H](O)COc1cccc(Cl)c1C#N` [NPS-2143]?
A: Reported effects on pulmonary hypertension pathology [1]: inhibit cardiac hypertrophy, a rise in right ventricular systolic pressure, myocardial tissue fibrosis, and pulmonary vascular remodeling; Reported effects on pulmonary hypertension pathology [2]: inhibit cardiac hypertrophy, a rise in right ventricular systolic pressure, myocardial tissue fibrosis, and pulmonary vascular remodeling; Effect on the action of an existing PAH drug (PDE 5 inhibitor/sildenafil) [3]: enhance the effect

Q: Which RVP [4, 12] does the source give for `CCc1ccc(C(CC)(CC)NC(=O)c2c(C)nn3c2N[C@@H](c2ccccc2)CC3(C)C)cc1` [Compound A′, (5R)-N-[1-Ethyl-1-(4-ethylphenyl)propyl]-2,7,7-trimethyl-5-phenyl-4,5,6,7-tetrahydropyrazolo[1,5-a]pyrimidine-3-carboxamide] here?
A: 26.4 mmHg

Q: And the RVP [4, 13]?
A: 22.4 mmHg

Q: And the RVP [4, 14]?
A: 17.8 mmHg

Q: What about the “Effect on right ventricular pressure, in words” value ([4]; at 28 days after MCT administration, summary of Table 1) of the same compound?
A: remarkably improved

Q: What about the RVSP [5, 12] of the same compound?
A: 48.3 mmHg

Q: What about the RVSP [5, 13] of the same compound?
A: 39.1 mmHg

Q: What about the RVSP [5, 14] of the same compound?
A: 28.0 mmHg

Q: What about the “Effect on right ventricular systolic pressure (RVSP), in words” value ([5]; at 28 days after MCT administration, summary of Table 2) of the same compound?
A: remarkably improved

Q: What about the “RV/(LV + S)” value [6, 12] of the same compound?
A: 0.333

Q: What about the “RV/(LV + S)” value [6, 13] of the same compound?
A: 0.307

Q: And the “RV/(LV + S)” value [6, 14]?
A: 0.282

Q: What about the “Effect on right ventricular hypertrophy, in words” value ([6]; at 28 days after MCT administration, summary of Table 3) of the same compound?
A: remarkably improved

Q: And the “Thickness of pulmonary artery medial wall” value ([7]; Diameter of pulmonary artery (50 μM-100 μM))?
A: 6.86

Q: And the “Thickness of pulmonary artery medial wall” value [7, 15]?
A: 4.28

Q: And the “Effect on thickening of the pulmonary artery medial wall, in words” value ([7]; at 28 days after MCT administration, summary of Table 4)?
A: remarkably improved

Q: What about the Pulmonary artery occlusion [8, 15] of the same compound?
A: 0.20

Q: And the Pulmonary artery occlusion ([8]; Diameter of pulmonary artery)?
A: 0.19

Q: What about the “Effect on occlusion of the pulmonary artery, in words” value ([8]; at 28 days after MCT administration, summary of Table 5) of the same compound?
A: remarkably improved

Q: And the “Effect on survival rate (Kaplan-Meier survival curve, FIG. 1)” value [9]?
A: remarkably improved the survival rate

Q: And the IC50 ([10]; AlphaScreen, FLAG-tagged human NHE1 microsomal fraction and biotinylated human CHP1, 50.0 nM to 0.8 nM tested, read-out: CHP1-NHE1 interaction activity (50% inhibitory concentration))?
A: 4.7 nM

Q: And the “CHP1-NHE1 inhibitory activity, in words” value ([10]; summary of Table 6)?
A: remarkable CHP1-NHE1 inhibitory activity

Q: What about the “Activity at CaSR” value [11] of the same compound?
A: CaSR antagonist

Q: For `C[C@@H](N[C@H]1CCCC[C@@H]1NC(=O)c1ccc(Cl)cc1)c1cccc2ccccc12` [Calhex 231], which “Effect on the action of an existing PAH drug (PDE 5 inhibitor/sildenafil)” value [3] is on record?
A: enhance the effect
